The text below walks through data of US8497380B2, “Substituted acetophenones useful as PDE4 inhibitors” (Leo Pharma A/S, priority 2006, dated 2013).

pIC50: −log10 of the molar value.

The assay relates to Human peripheral blood mononuclear cells (PBMC). The assay is described as follows: TNFalfa-Release. The class given is cell-based. The following applies: inhibition of TNF-a secretion, PBMC pre-incubated 30 minutes, stimulated 18 hours with lipopolysaccharide. On the procedure: Human peripheral blood mononuclear cells (PBMC) are Isolated from buffy coats. The blood is mixed with saline at a ratio of 1:1, and the PBMC is isolated by the use of Lymphoprep Tubes™ (Nycomed, Norway). The PBMC is suspended in RPMI1640 with 2% foetal calf serum (FCS), pen/strep and 2 mM L-glutamine at a concentration of 5×105 c/ml. The cells are pre-incubated for 30 minutes with the test compounds in 96 well tissue culture plates and stimulated for 18 hours with lipopolysaccharide 1 mg/ml (Sigma). The level of TNF-a is measured in the culture supernatant by enzyme immuno assays using primary and secondary biotinylated antibodies from R&D systems. Results are expressed as pIC50 values calculated from inhibition curves using as positive controls the secretion in LPS stimulated wells and as negative controls the secretion in unstimulated cells.
As a reminder, the pIC50 is the negative decadic logarithm of the IC50, by convention in mol/L. A lower pIC50 goes with a large IC50. As to `COc1ccc(C(=O)Cc2c(Cl)cncc2Cl)c(OCC(=O)NCc2cccc(F)c2)c1OC` [Compound 238, 2-{6-[2-(3,5-Dichloro-pyridin-4-yl)-acetyl]-2,3-dimethoxy-phenoxy}-N-(3-fluoro-benzyl)-acetamide], the pIC50 is over 6.00.
With `COc1ccc(C(=O)Cc2c(Cl)cncc2Cl)c(OCC(=O)NCc2ccco2)c1OC` [Compound 228, 2-{6-[2-(3,5-Dichloro-pyridin-4-yl)-acetyl]-2,3-dimethoxy-phenoxy}-N-furan-2-ylmethyl-acetamide] the figure was over 6.00; with `COc1ccc(C(=O)Cc2c(Cl)cncc2Cl)c(OCC(=O)NCCCN(C)C)c1OC` [Compound 225, 2-{6-[2-(3,5-Dichloro-pyridin-4-yl)-acetyl]-2,3-dimethoxy-phenoxy}-N-(3-dimethylamino-propyl)-acetamide], over 6.00; with `COc1ccc(C(=O)Cc2c(Cl)cncc2Cl)c(OCC(=O)NCCc2cccnc2)c1OC` [Compound 249, 2-{6-[2-(3,5-Dichloro-pyridin-4-yl)-acetyl]-2,3-dimethoxy-phenoxy}-14-(2-pyridin-3-yl-ethyl)-acetamide], over 6.00.
As for `COCCNC(=O)COc1c(C(=O)Cc2c(Cl)cncc2Cl)ccc(OC)c1OC` [Compound 223, 2-{6-(2-(3,5-Dichloro-pyridin-4-yl)-acetyl)-2,3-dimethoxy-phenoxy}-N-(2-methoxy-ethyl)-acetamide], the figure is over 6.00; as for `COc1ccc(C(=O)Cc2c(Cl)cncc2Cl)c(OCC(=O)NCc2cc(F)cc(F)c2)c1OC` [Compound 234, 2-{6-[2-(3,5-Dichloro-pyridin-4-yl)-acetyl]-2,3-dimethoxy-phenoxy}-N-(3,5-difluoro-benzyl)-acetamide], over 6.00.
With `COc1ccc(C(=O)Cc2c(Cl)cncc2Cl)c(OCC(=O)NCCOCCO)c1OC` [Compound 258, 2-{6-[2-(3,5-Dichloro-pyridin-4-yl)-acetyl]-2,3-dimethoxy-phenoxy}-N-[2-(2-hydroxy-ethoxy)-ethyl]-acetamide] the figure was over 6.00; with `C=CCOc1c(OC)ccc(C(=O)Cc2c(Cl)cncc2Cl)c1OCC=C` [Compound 106, 1-(2,3-Bis-allyloxy-4-methoxy-phenyl)-2-(3,5-dichloro-pyridin-4-yl)-ethanone], over 6.00.
`CCCCCOc1c(C(=O)Cc2c(Cl)cncc2Cl)ccc(OC)c1OC` [Compound 150, 2-(3,5-Dichloro-pyridin-4-yl)-1-(3,4-dimethoxy-2-pentyloxy-phenyl)-ethanone] had a pIC50 of over 6.00.
`COc1ccc(C(=O)Cc2c(Cl)cncc2Cl)c(OCC(=O)NCCc2ccccn2)c1OC` [Compound 236, 2-{6-[2-(3,5-Dichloro-pyridin-4-yl)-acetyl]-2,3-dimethoxy-phenoxy}-N-(2-pyridin-2-yl-ethyl)-acetamide] showed a negative-log IC50 (pIC50) of over 6.00.
`COc1ccc(C(=O)Cc2c(Cl)cncc2Cl)c(OCC(=O)NCCCN2CCCC2=O)c1OC` [Compound 255, 2-{6-[2-(3,5-Dichloro-pyridin-4-yl)-acetyl]-2,3-dimethoxy-phenoxy}-N-[3-(2-oxo-pyrrolidin-1-yl)-propyl]-acetamide] gave a pIC50 of over 6.00.
As for `COc1ccc(C(=O)Cc2c(Cl)cncc2Cl)c(OCCCOCc2ccccc2)c1OC` [Compound 183, 1-[2-(3-Benzyloxy-propoxy)-3,4-dimethoxy-phenyl]-2-(3,5-dichloro-pyridin-4-yl)-ethanone], the pIC50 was over 6.00.
In the case of `CCOc1c(OC)ccc(C(=O)Cc2c(Cl)cncc2Cl)c1OCCc1ccccc1` [Compound 263, 2-(3,5-Dichloro-pyridin-4-yl)-1-(3-ethoxy-4-methoxy-2-phenethyloxy-phenyl)-ethanone], the pIC50 is over 6.00.
With `CCOc1c(OC)ccc(C(=O)Cc2c(Cl)cncc2Cl)c1OCC` [Compound 104, 2-(3,5-Dichloro-pyridin-4-yl)-1-(2,3-diethoxy-4-methoxy-phenyl)-ethanone] the figure was over 6.00.
